Four compounds from ChEMBL document CHEMBL1150548, “Dopamine autoreceptor agonists: computational studies, synthesis and biological investigations” (Bioorg Med Chem Lett, 1993) can be followed below.

One assay has as its target D(1A) dopamine receptor (Rattus norvegicus, UniProt P18901). The assay is described as follows: Compound was evaluated for binding affinity to Dopamine receptor D1 labeled with [3H]-SCH- 23390 (0.3 nM) in rat striatal membranes. Format: cell membranes, Striatum, Membrane.
The target of assay [1] is T1, D(2) dopamine receptor (Rattus norvegicus, UniProt P61169). The experiment in a line: Compound was evaluated for binding affinity to Dopamine receptor D2 labeled with [3H]spiroperidol (0.5 nM) in rat striatal membranes. The assay is classed as cell membranes, Striatum, Membrane.
T1 sequence (P61169 whole entry): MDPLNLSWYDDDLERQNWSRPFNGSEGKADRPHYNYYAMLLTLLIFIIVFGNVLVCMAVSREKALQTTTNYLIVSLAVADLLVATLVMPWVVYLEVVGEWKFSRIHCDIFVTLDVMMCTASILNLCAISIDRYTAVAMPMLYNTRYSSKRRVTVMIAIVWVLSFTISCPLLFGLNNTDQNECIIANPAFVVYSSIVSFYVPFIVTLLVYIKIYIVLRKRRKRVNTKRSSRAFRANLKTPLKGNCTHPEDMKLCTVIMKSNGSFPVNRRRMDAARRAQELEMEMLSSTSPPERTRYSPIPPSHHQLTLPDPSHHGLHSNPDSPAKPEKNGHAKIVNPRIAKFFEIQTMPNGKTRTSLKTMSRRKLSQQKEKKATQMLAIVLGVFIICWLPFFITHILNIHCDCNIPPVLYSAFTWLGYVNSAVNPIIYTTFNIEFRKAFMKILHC
Assay [2] deals with T1, D(2) dopamine receptor. The experiment in a line: Compound was evaluated for binding affinity to Dopamine receptor D2 labeled with [3H]-SND 919 (0.5 nM) in rat striatal membranes. The assay is classed as cell membranes, Striatum, Membrane.
The test system of assay [3] is Mus musculus. The assay is described as follows: Compound was evaluated for agonistic activity (DA receptor) by inhibition of GBL (gamma-butyralactone)-induced L-Dopa accumulation at a dose of 10 mg/Kg. Format: functional.
In assay [4] the test system is Mus musculus. The experiment in a line: Compound was evaluated for agonistic activity (DA receptor) by inhibition of GBL (gamma-butyralactone)-induced L-Dopa accumulation at a dose 10 mg/kg. The assay is classed as functional.

Some results are limits rather than exact numbers.

Chain of D(1A) dopamine receptor (P18901 whole entry): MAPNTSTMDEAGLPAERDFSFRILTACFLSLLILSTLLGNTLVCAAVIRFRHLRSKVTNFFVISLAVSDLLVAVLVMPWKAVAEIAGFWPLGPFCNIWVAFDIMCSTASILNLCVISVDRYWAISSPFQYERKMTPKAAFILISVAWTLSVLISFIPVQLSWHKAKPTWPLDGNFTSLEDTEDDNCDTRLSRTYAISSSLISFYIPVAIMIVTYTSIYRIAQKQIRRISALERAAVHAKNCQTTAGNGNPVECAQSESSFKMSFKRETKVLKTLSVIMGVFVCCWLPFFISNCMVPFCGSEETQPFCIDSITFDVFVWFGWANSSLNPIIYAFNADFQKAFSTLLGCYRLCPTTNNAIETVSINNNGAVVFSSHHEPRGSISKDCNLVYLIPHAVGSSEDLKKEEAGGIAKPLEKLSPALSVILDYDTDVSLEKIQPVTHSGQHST

For `NC1Cc2cccn3ncc(c23)C1` (centres undefined), the IC50 on D(1A) dopamine receptor was > 100 µM; at D(2) dopamine receptor [1] it was > 100 µM; at D(2) dopamine receptor [2], 2.8 µM.

In the case of `CCCN(CCC)C1Cc2cccn3ncc(c23)C1` (centres undefined), the IC50 at D(1A) dopamine receptor is > 100 µM; at D(2) dopamine receptor [1] it was 50.4 µM; at D(2) dopamine receptor [2] it was 0.26 µM. This compound yielded an inhibition in vivo at 10 mg/kg in the assay with Mus musculus [3] of 57%.

As to `CCCN(CCC)[C@H]1CCn2cccc2C1`, the results for the IC50 at D(1A) dopamine receptor, on D(2) dopamine receptor [1] and on D(2) dopamine receptor [2] were 14.5 µM, 7.1 µM and 0.03 µM, respectively. In addition, in the assay with Mus musculus [4], the inhibition in vivo at 10 mg/kg turned out to be 62%.

Regarding `CCCNC1Cc2cccn3ncc(c23)C1` (centres undefined), the IC50 is > 100 µM on D(1A) dopamine receptor, > 100 µM on D(2) dopamine receptor [1] and 2.7 µM on D(2) dopamine receptor [2].
